Test results: patent US9320739B2 (AMBIT BIOSCIENCES CORPORATION, priority 2008, dated 2016)

test system: panel of 290 distinct kinases (321 in the larger panel), excluding mutant variants; conditions: asterisk: panel of 321 distinct kinases
Experimental: Competition binding assays used herein were developed, validated and performed as described in Fabian et al., Nature Biotechnology 2005, 23, 329-336. […] The liganded beads were blocked with excess biotin and washed with blocking buffer (SeaBlock (Pierce), 1% BSA, 0.05% Tween 20, 1 mM DTT) to remove unbound ligand and to reduce non-specific binding. […] Test compounds were prepared as 100× stocks in DMSO and rapidly diluted into the aqueous environment. DMSO was added to control assays lacking a test compound. Primary screen interactions were performed in polypropylene 384-well plates in a final volume of 34 μL, while Kd determinations were performed in polystyrene 96-well plates in a final volume of 135 pt. […] The kinase concentration in the eluates was measured by quantitative PCR. Each kinase was tested individually against each compound. Kds were determined using eleven serial threefold dilutions. A selectivity score, which is a quantitative measure of selectivity of a compound against a panel of enzymes, may be calculated for a compound by dividing the number of enzymes for which a compound meets a set criteria, (for example, a binding constant of 100 nM or less), by the total number of enzymes tested. […] (Note, for those compounds tested in a larger kinase panel, as indicated by an asterisk (*) next to the S35 score, the divisor is 321 (i.e. the larger panel contains 321 distinct kinases, excluding mutant variants.)).

Compound	S35
COCCOc1cc2ncnc(Oc3cccc(NC(=O)Nc4cc(C(F)(F)F)nn4-c4ccccc4)c3)c2cc1OC [Ex 221, 1-{3-[6-methoxy-7-(2-methoxyethoxy)quinazolin-4-yloxy]phenyl}-3-[1-phenyl-3-(trifluoromethyl)-1H-pyrazol-5-yl]urea]	C * (0.20 < C ≦ 0.40)
COCCOc1cc2ncnc(Sc3cccc(NC(=O)Nc4cc(C(F)(F)F)nn4-c4ccc(C)cc4)c3)c2cc1OC [Ex 243, 1-{3-[6-methoxy-7-(2-methoxyethoxy)quinazolin-4-ylthio]phenyl}-3-[1-p-tolyl-3-(trifluoromethyl)-1H-pyrazol-5-yl]urea]	C * (0.20 < C ≦ 0.40)

same assay, conditions: no asterisk: panel of 290 distinct kinases

Compound	S35
COc1cc2ncnc(Oc3cccc(NC(=O)Nc4cc(C(C)(C)C)nn4-c4ccc(C)nc4)c3)c2cc1OC [Ex 312, 1-(3-tert-butyl-1-(6-methylpyridin-3-yl)-1H-pyrazol-5-yl)-3-(3-(6,7-dimethoxyquinazolin-4-yloxy)phenyl)urea]	D (D > 0.40)
COc1cc2ncnc(Sc3cccc(NC(=O)Nc4cc(C(C)(C)C)nn4-c4ccccc4Cl)c3)c2cc1OC [Ex 341, 1-(3-tert-butyl-1-(2-chlorophenyl)-1H-pyrazol-5-yl)-3-(3-(6,7-dimethoxyquinazolin-4-ylthio)phenyl)urea]	C (0.20 < C ≦ 0.40)
COc1cc2ncnc(Oc3cccc(NC(=O)Nc4cc(C(C)(C)C)nn4CC(C)C)c3)c2cc1OC [Ex 332, 1-(3-tert-butyl-1-isobutyl-1H-pyrazol-5-yl)-3-(3-(6,7-dimethoxyquinazolin-4-yloxy)phenyl)urea]	C (0.20 < C ≦ 0.40)
COc1cc2ncnc(Oc3cccc(NC(=O)Nc4cc(C(C)(C)C)nn4-c4cccnc4)c3)c2cc1OC [Ex 322, 1-(3-tert-butyl-1-(pyridin-3-yl)-1H-pyrazol-5-yl)-3-(3-(6,7-dimethoxyquinazolin-4-yloxy)phenyl)urea]	D (D > 0.40)
COc1cc2ncnc(Sc3cccc(NC(=O)Nc4cc(C(C)(C)C(F)(F)F)nn4-c4ccccc4)c3)c2cc1OC [Ex 307, 1-(3-(6,7-dimethoxyquinazolin-4-ylthio)phenyl)-3-(1-phenyl-3-(1,1,1-trifluoro-2-methylpropan-2-yl)-1H-pyrazol-5-yl)urea]	D (D > 0.40)
COc1ccc(-n2nc(C(C)C)cc2NC(=O)Nc2cccc(Sc3ncnc4cc(OC)c(OC)cc34)c2)cc1 [Ex 349, 1-(3-(6,7-dimethoxyquinazolin-4-ylthio)phenyl)-3-(3-isopropyl-1-(4-methoxyphenyl)-1H-pyrazol-5-yl)urea]	C (0.20 < C ≦ 0.40)
COc1cc2ncnc(Sc3cccc(NC(=O)Nc4cc(C(C)(F)F)nn4-c4ccccc4)c3)c2cc1OC [Ex 319, 1-(3-(1,1-difluoroethyl)-1-phenyl-1H-pyrazol-5-yl)-3-(3-(6,7-dimethoxyquinazolin-4-ylthio)phenyl)urea]	C (0.20 < C ≦ 0.40)
COc1cc2ncnc(Sc3cccc(NC(=O)Nc4cc(C(C)(C)C)nn4C4CCCCC4)c3)c2cc1OC [Ex 331, 1-(3-tert-butyl-1-cyclohexyl-1H-pyrazol-5-yl)-3-(3-(6,7-dimethoxyquinazolin-4-ylthio)phenyl)urea]	B (0.10 < B ≦ 0.20)
COc1cc2ncnc(Oc3cccc(NC(=O)Nc4cc(C(C)(C)C)nn4-c4cncc(F)c4)c3)c2cc1OC [Ex 326, 1-(3-tert-butyl-1-(5-fluoropyridin-3-yl)-1H-pyrazol-5-yl)-3-(3-(6,7-dimethoxyquinazolin-4-yloxy)phenyl)urea]	D (D > 0.40)
COc1cc2ncnc(Oc3cccc(NC(=O)Nc4cc(C(C)(C)C)nn4-c4ccccc4C)c3)c2cc1OC [Ex 342, 1-(3-tert-butyl-1-o-tolyl-1H-pyrazol-5-yl)-3-(3-(6,7-dimethoxyquinazolin-4-yloxy)phenyl)urea]	D (D > 0.40)
COc1ccc(-n2nc(C(C)(F)F)cc2NC(=O)Nc2cccc(Oc3ncnc4cc(OC)c(OC)cc34)c2)cc1 [Ex 315, 1-(3-(1,1-difluoroethyl)-1-(4-methoxyphenyl)-1H-pyrazol-5-yl)-3-(3-(6,7-dimethoxyquinazolin-4-yloxy)phenyl)urea]	D (D > 0.40)
COc1cc2ncnc(Oc3cccc(NC(=O)Nc4cc(C(C)C)nn4-c4ccccc4)c3)c2cc1OC [Ex 324, 1-(3-(6,7-dimethoxyquinazolin-4-yloxy)phenyl)-3-(3-isopropyl-1-phenyl-1H-pyrazol-5-yl)urea]	D (D > 0.40)
COc1cc2ncnc(Sc3cccc(NC(=O)Nc4cc(C(C)(C)C)nn4-c4ccccn4)c3)c2cc1OC [Ex 345, 1-(3-tert-butyl-1-(pyridin-2-yl)-1H-pyrazol-5-yl)-3-(3-(6,7-dimethoxyquinazolin-4-ylthio)phenyl)urea]	B (0.10 < B ≦ 0.20)
COc1cc2ncnc(Oc3cccc(NC(=O)Nc4cc(C(C)(C)C)nn4-c4cc[nH]c(=O)c4)c3)c2cc1OC [Ex 313, 1-(3-tert-butyl-1-(2-oxo-1,2-dihydropyridin-4-yl)-1H-pyrazol-5-yl)-3-(3-(6,7-dimethoxyquinazolin-4-yloxy)phenyl)urea]	D (D > 0.40)
COc1cc2ncnc(Sc3cccc(NC(=O)Nc4cc(C(C)(C)C)nn4-c4cccnc4)c3)c2cc1OC [Ex 323, 1-(3-tert-butyl-1-(pyridin-3-yl)-1H-pyrazol-5-yl)-3-(3-(6,7-dimethoxyquinazolin-4-ylthio)phenyl)urea]	D (D > 0.40)
COc1cc2ncnc(Sc3cccc(NC(=O)Nc4cc(C(C)(C)C)nn4-c4ccccc4C)c3)c2cc1OC [Ex 343, 1-(3-tert-butyl-1-o-tolyl-1H-pyrazol-5-yl)-3-(3-(6,7-dimethoxyquinazolin-4-ylthio)phenyl)urea]	C (0.20 < C ≦ 0.40)
COc1cc2ncnc(Oc3cccc(NC(=O)Nc4cc(C(C)(C)CO)no4)c3)c2cc1OC [Ex 255, 1-(3-(6,7-dimethoxyquinazolin-4-yloxy)phenyl)-3-(3-(1-hydroxy-2-methylpropan-2-yl)isoxazol-5-yl)urea]	C (0.20 < C ≦ 0.40)
COc1cc2ncnc(Sc3cccc(NC(=O)Nc4cc(C(C)C)nn4-c4cccnc4)c3)c2cc1OC [Ex 351, 1-(3-(6,7-dimethoxyquinazolin-4-ylthio)phenyl)-3-(3-isopropyl-1-(pyridin-3-yl)-1H-pyrazol-5-yl)urea]	C (0.20 < C ≦ 0.40)
COc1cc2ncnc(Oc3cccc(NC(=O)Nc4cc(C(C)(C)C)nn4C(C)C)c3)c2cc1OC [Ex 334, 1-(3-tert-butyl-1-isopropyl-1H-pyrazol-5-yl)-3-(3-(6,7-dimethoxyquinazolin-4-yloxy)phenyl)urea]	C (0.20 < C ≦ 0.40)
COc1cc2ncnc(Oc3cccc(NC(=O)Nc4cc(C(C)(C)C)nn4-c4ccccn4)c3)c2cc1OC [Ex 344, 1-(3-tert-Butyl-1-(pyridin-2-yl)-1H-pyrazol-5-yl)-3-(3-(6,7-dimethoxyquinazolin-4-yloxy)phenyl)urea]	C (0.20 < C ≦ 0.40)
COc1cc2ncnc(Oc3cccc(NC(=O)Nc4cc(C(C)(C)C)nn4-c4cccnc4C)c3)c2cc1OC [Ex 305, 1-(3-tert-butyl-1-(2-methylpyridin-3-yl)-1H-pyrazol-5-yl)-3-(3-(6,7-dimethoxyquinazolin-4-yloxy)phenyl)urea]	D (D > 0.40)
COc1cc2ncnc(Sc3cccc(NC(=O)Nc4cc(C(C)C)nn4-c4ccccc4)c3)c2cc1OC [Ex 325, 1-(3-(6,7-dimethoxyquinazolin-4-ylthio)phenyl)-3-(3-isopropyl-1-phenyl-1H-pyrazol-5-yl)urea]	C (0.20 < C ≦ 0.40)
COc1cc2ncnc(Sc3cccc(NC(=O)Nc4cc(C(F)(F)F)nn4-c4cccc(C)c4)c3)c2cc1OC [Ex 339, 1-(3-(6,7-dimethoxyquinazolin-4-ylthio)phenyl)-3-(1-m-tolyl-3-(trifluoromethyl)-1H-pyrazol-5-yl)urea]	C (0.20 < C ≦ 0.40)
COc1cc2ncnc(Sc3cccc(NC(=O)Nc4cc(C(C)(C)C)nn4-c4cncc(F)c4)c3)c2cc1OC [Ex 327, 1-(3-tert-butyl-1-(5-fluoropyridin-3-yl)-1H-pyrazol-5-yl)-3-(3-(6,7-dimethoxyquinazolin-4-ylthio)phenyl)urea]	D (D > 0.40)
CCn1nc(C(C)(C)C)cc1NC(=O)Nc1cccc(Sc2ncnc3cc(OC)c(OC)cc23)c1 [Ex 321, 1-(3-tert-butyl-1-ethyl-1H-pyrazol-5-yl)-3-(3-(6,7-dimethoxyquinazolin-4-ylthio)phenyl)urea]	C (0.20 < C ≦ 0.40)
COc1cc2ncnc(Oc3cccc(NC(=O)Nc4cc(C(C)(F)F)nn4-c4cccnc4)c3)c2cc1OC [Ex 311, 1-(3-(1,1-difluoroethyl)-1-(pyridin-3-yl)-1H-pyrazol-5-yl)-3-(3-(6,7-dimethoxyquinazolin-4-yloxy)phenyl)urea]	C (0.20 < C ≦ 0.40)
COc1cc2ncnc(Oc3cccc(NC(=O)Nc4cc(C(C)(C)C(F)(F)F)nn4-c4ccccc4)c3)c2cc1OC [Ex 306, 1-(3-(6,7-dimethoxyquinazolin-4-yloxy)phenyl)-3-(1-phenyl-3-(1,1,1-trifluoro-2-methylpropan-2-yl)-1H-pyrazol-5-yl)urea]	D (D > 0.40)
COc1cc2ncnc(Sc3cccc(NC(=O)Nc4cc(C(C)(C)C)nn4-c4ccncc4)c3)c2cc1OC [Ex 337, 1-(3-tert-butyl-1-(pyridin-4-yl)-1H-pyrazol-5-yl)-3-(3-(6,7-dimethoxyquinazolin-4-ylthio)phenyl)urea]	D (D > 0.40)
COc1cc2ncnc(Oc3cccc(NC(=O)Nc4cc(C(C)(C)C)nn4-c4ccccc4Cl)c3)c2cc1OC [Ex 340, 1-(3-tert-butyl-1-(2-chlorophenyl)-1H-pyrazol-5-yl)-3-(3-(6,7-dimethoxyquinazolin-4-yloxy)phenyl)urea]	D (D > 0.40)

same assay, conditions: no asterisk: panel of 290 distinct kinases; fraction of kinases inhibited 65% or greater

Compound	S35
COc1cc2c(Sc3cccc(NC(=O)Nc4cc(C(C)(C)C)on4)c3)ncnc2cc1OCCN1CCN(CCO)CC1 [Ex 84, 1-(5-tert-butylisoxazol-3-yl)-3-(3-(7-(2-(4-(2-hydroxyethyl)piperazin-1-yl)ethoxy)-6-methoxyquinazolin-4-ylthio)phenyl)urea]	D (D > 0.40)
COc1cc(OC2CCOCC2)c2c(Sc3cccc(NC(=O)Nc4cc(C(C)(C)C)on4)c3)ncnc2c1	C (0.20 < C ≦ 0.40)
